This test deals with T1, human placental microsomal aromatase (Homo sapiens, UniProt P11511).
T1 construct: was determined in a pool of human fresh placental microsomes in vitro; from tissue; host or cells: human placenta (pooled fresh microsomes)
T1 sequence (P11511 1-503): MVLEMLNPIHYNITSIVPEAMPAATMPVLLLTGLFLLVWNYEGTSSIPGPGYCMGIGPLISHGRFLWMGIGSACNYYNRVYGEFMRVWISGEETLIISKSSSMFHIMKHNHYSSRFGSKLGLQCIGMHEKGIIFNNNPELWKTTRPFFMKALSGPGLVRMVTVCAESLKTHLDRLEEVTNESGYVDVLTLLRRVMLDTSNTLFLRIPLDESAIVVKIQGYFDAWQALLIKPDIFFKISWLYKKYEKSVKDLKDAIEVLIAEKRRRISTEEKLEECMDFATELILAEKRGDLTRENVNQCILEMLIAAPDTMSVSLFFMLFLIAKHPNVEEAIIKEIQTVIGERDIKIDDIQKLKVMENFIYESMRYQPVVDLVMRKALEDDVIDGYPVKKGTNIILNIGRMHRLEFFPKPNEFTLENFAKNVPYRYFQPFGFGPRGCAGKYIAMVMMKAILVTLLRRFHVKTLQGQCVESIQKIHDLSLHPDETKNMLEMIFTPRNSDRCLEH
As to the kind of experiment: Human placental aromatase inhibition assay. In kind it is biochemical.

`C[C@]12C=CC(=O)C[C@H]1C[C@H](O)[C@@H]1[C@@H]2CC[C@]2(C)OC(=O)CC[C@@H]12` [Compound 2, 7β-hydroxy-3-oxo-13,17-seco-5β-androsta-1-eno-17,13α-lactone] came in with a 50% inhibitory concentration (IC50) of 8.63 ± 0.4 nM.
Compound `C[C@]12CC[C@H]3[C@@H](CC[C@]45O[C@H]4[C@@H](O)C=C[C@]35C)[C@@H]1CCC(=O)O2` [Compound 4, 4β,5β-epoxy-3β-hydroxy-13,17-secoandrosta-1-eno-17,13α-lactone] returned an IC50 of 10400 ± 500 nM.
For `C[C@]12C=CC(=O)C=C1CC[C@@H]1[C@@H]2CC[C@]2(C)OC(=O)CC[C@@H]12` [Compound 1, 3-oxo-13,17-secoandrosta-1,4-dieno-17,13α-lactone, reference compound] the value was 716 ± 31 nM; for `C[C@]12CC[C@H]3[C@@H](CC[C@]45O[C@H]4[C@H](O)C=C[C@]35C)[C@@H]1CCC(=O)O2` [Compound 5, 4β,5β-epoxy-3α-hydroxy-13,17-secoandrosta-1-eno-17,13α-lactone], 820 ± 59 nM; for `C[C@]12CC[C@@H](O)C[C@H]1CC[C@@H]1[C@@H]2[C@@H](O)C[C@]2(C)OC(=O)CC[C@@H]12` [Compound 3, 3α,11β-dihydroxy-13,17-seco-5β-androsta-17,13α-lactone], 9.23 ± 1.3 nM.

As usually defined, the IC50 is the concentration that gives 50% inhibition. A higher IC50 goes with weaker potency.

These data come from patent US11939352B2, “Potent aromatase inhibitors through fungal transformation of anti-cancer drug testolactone: an approach towards treatment of breast cancer” (priority 2021, dated 2024).
